Like-named read-outs stand apart in the source and are kept apart here.
Columns and labels:
[1] = system: Tom20 loss in differentiated RenCell VM; assay: In-cell Tom20 loss assay; format: cell-based; settings: 20 h after compound addition
Method: To evaluate Tom20 loss following treatment with compounds and/or antimycin/oligomycin, a 96-well plate assay was performed on differentiated RenCell VM. These were seeded into laminin-coated 96-well plates at 5000 cells/well in normal growth medium (ReNcell NSC maintenance medium+20 ng/ml FDF-2 and 20 ng/ml EGF). After 3 days, growth medium was replaced with differentiation medium (ReNCell NSC medium+0.1 mM dibutyryl cAMP and 2 ng/ml GDNF). On days 1 and 4 following addition of differentiation medium, the media was removed and replaced with fresh differentiation medium. […] After again washing with PBS, cells were imaged using GE INCell 6000 at 40× and quantified using HCA-based quantification algorithm of fluorescence density×area normalized to the number of nuclei.

[2] = target: recombinant USP30 (amino acids 57-517 of the human sequence) (Homo sapiens (Human), UniProt Q70CQ3); assay: In vitro USP30 biochemical assay (Ubiquitin-Rhodamine substrate); settings: fluorescence
Method: In vitro biochemical assay to establish the potency of compounds for USP30 inhibition: a 384-well plate assay using a fluorophore tagged substrate of USP30 was used for in vitro screening of compounds. Each compound was tested at
10 different concentrations (0.5 to 10,000 nM) in duplicate wells. […] Data were analyzed using Graph Pad Prism software with a four-parameter (floating slope) fit to log concentration data to determine IC50s.

[3] = target: USP30 (Homo sapiens (Human), UniProt Q70CQ3); assay: Dundee MALDI-TOF mass spectrometry assay (K48-linked diubiquitin cleavage); format: biochemical; settings: USP30 25 ng/μl, K48-linked diubiquitin 5.6 μM
Method: USP30 was diluted in a buffer containing 40 mM Tris, 0.01% BSA, 1 mM DTT and K48 in 40 mM Tris, 0.01% BSA.
The compounds were pre-incubated with the USP30 for 5 mins at room temp before the K48 dimer addition. The assay mixture was then incubated for 45 mins at room temp. The assay was stopped by the addition of TFA to a final concentration of 2% (v/v).
Acidified samples of the DUB assays were mixed with 0.5 mM 15N-ubiquitin and then with one part of 2% (v/v) TFA and one part of 2.5 DHAP matrix solution (7.6 mg of 2.5 DHAP in […] ethanol and […] of an aqueous 12 mg ml 1 diammonium hydrogen citrate).

[4] = Metabolic stability and intrinsic clearance in liver microsomes (mouse); format: in vitro ADME; settings: 37° C.
Method: (§1) Test compounds were incubated with microsomes supplemented with co-factors at 37° C. Typical conditions were: compound concentration of 1 μM and 5 sampling time-points (0, 15, 30, 45 and 60 minutes), in duplicates. At each time-point, the reactions were terminated by the addition of organic solvent. The samples were centrifuged and the parent compound concentration was evaluated by LC-MS/MS measurements.

[5] = Kinetic solubility; format: physicochemical; settings: 100 mM PBS, 1 hour at room temperature
Method: To 396 μL of a 100 mM phosphate buffered saline (PBS) was added 4 μL of a 10 mM stock solution of the compound. The mixture was shaken at 1000 rpm for 1 hour at room temperature. […] Compound concentration was calculated by comparison to a standard calibration curve. The assay was done in duplicate. The results are reported in μMol.

[6] = Metabolic stability and intrinsic clearance in liver microsomes (rat); format: in vitro ADME; settings: 37° C.
Method: as §1

[7] = Metabolic stability and intrinsic clearance in liver microsomes (human); format: in vitro ADME; settings: 37° C.
Method: as §1

[8] = system: Caco-2 cells; assay: Caco-2 permeability screening assay; format: in vitro ADME; settings: Caco-2, 10 μM, […] at 37° C.
[9] = […] recombinant USP30, 25 nM Ubiquitin-Rhodamine
[10] = 1.5 nM recombinant USP30, 25 nM Ubiquitin-Rhodamine

Sequence of recombinant USP30 (amino acids 57-517 of the human sequence) (Q70CQ3 57-517): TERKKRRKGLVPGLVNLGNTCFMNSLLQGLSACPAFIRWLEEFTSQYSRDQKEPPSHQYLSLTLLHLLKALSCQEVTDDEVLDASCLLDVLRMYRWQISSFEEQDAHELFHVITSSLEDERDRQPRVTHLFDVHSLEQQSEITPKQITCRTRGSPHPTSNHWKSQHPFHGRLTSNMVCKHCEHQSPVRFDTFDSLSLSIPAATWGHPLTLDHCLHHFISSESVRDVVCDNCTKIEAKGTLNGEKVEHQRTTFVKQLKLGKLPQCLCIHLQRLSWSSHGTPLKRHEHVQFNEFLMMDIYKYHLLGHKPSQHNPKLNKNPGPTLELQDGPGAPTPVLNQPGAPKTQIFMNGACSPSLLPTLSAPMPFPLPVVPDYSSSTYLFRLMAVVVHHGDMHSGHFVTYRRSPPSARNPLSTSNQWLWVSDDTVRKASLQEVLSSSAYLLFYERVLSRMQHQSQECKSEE
Sequence of USP30 (Q70CQ3 whole entry): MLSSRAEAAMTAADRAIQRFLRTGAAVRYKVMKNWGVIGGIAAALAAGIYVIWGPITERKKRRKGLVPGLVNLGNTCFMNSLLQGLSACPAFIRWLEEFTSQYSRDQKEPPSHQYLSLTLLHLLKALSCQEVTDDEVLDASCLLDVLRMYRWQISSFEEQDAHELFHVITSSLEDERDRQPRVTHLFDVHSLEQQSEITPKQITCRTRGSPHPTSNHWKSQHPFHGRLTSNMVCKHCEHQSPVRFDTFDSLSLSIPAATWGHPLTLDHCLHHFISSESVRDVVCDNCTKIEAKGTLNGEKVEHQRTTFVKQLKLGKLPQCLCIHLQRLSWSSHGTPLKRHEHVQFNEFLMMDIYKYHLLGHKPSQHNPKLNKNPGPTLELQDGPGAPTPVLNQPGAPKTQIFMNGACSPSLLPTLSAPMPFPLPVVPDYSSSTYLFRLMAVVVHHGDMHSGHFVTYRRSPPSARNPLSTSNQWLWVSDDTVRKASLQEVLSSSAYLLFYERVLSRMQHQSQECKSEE

SMILES	IC50 [2, 9]	IC50 [2, 10]	Kinetic Solubility (μMol) [5]	further results
CC(C)(C)NS(=O)(=O)c1ccc(NC(=O)[C@H](CC2CCOCC2)NC(=O)c2ccc(F)cc2)cc1 [Compound I-1]	< 0.05 µM			IC50 [1]: < 500 nM; IC50 ([3]; read-out: IC50): < 0.05 µM
COc1cc(NC(=O)[C@H](CC2CCOCC2)NC(=O)c2ccc(F)cc2)ccc1S(=O)(=O)NC1COC1 [Compound I-3]		0.05 to 1 µM	A (solubility of ≥75.0 μMol)	half-life at 1 μM [4]: 15 to 120 min; half-life at 1 μM [6]: ≥ 360 min; half-life at 1 μM [7]: 120 to 360 min
CC(C)C[C@H](NC(=O)c1ccc(F)cc1)C(=O)Nc1ccc(S(=O)(=O)NC(C)(C)C)cc1 [Compound I-11]	< 0.05 µM			IC50 [1]: < 500 nM
CC(C)C[C@H](NC(=O)c1ccc(F)cc1)C(=O)Nc1ccc(S(=O)(=O)NC(C)(C)CCO)cc1 [Compound I-20, (S)-4-fluoro-N-(1-((4-(N-(4-hydroxy-2-methylbutan-2-yl)sulfamoyl)phenyl)amino)-4-methyl-1-oxopentan-2-yl)benzamide]		0.05 to 1 µM	B (solubility of ≥50.0 μMol and <75.0 μMol)	
CC(C)CC[C@H](NC(=O)c1ccc(F)cc1)C(=O)Nc1ccc(S(=O)(=O)NC(C)(C)C)cc1 [Compound I-23]	< 0.05 µM		D (solubility of <1.0 μMol)	
CN1CCC(C[C@H](NC(=O)c2ccc(F)cc2)C(=O)Nc2ccc(S(=O)(=O)NC(C)(C)C)cc2)CC1 [Compound I-41]		0.05 to 1 µM	A (solubility of ≥75.0 μMol)	
CCN1CCC(C[C@H](NC(=O)c2ccc(F)cc2)C(=O)Nc2ccc(S(=O)(=O)NC(C)(C)C)cc2)CC1 [Compound I-42]		0.05 to 1 µM	A (solubility of ≥75.0 μMol)	
CC(C)(CCO)NS(=O)(=O)c1ccc(NC(=O)[C@H](Cc2ccc(-c3ccccc3)cc2)NC(=O)c2ccc(F)cc2)cc1 [Compound I-59]		0.05 to 1 µM	D (solubility of <1.0 μMol)	
CC(C)(C)NS(=O)(=O)c1ccc(NC(=O)[C@H](Cc2ccc(-c3ccccc3)cc2)NC(=O)c2ccc(F)cc2)cc1 [Compound I-60]		0.05 to 1 µM	D (solubility of <1.0 μMol)	
CC(C)(C)NS(=O)(=O)c1ccc(NC(=O)[C@@H](NC(=O)c2ccc(F)cc2)C(C)(C)c2ccccc2)cc1 [Compound I-61]		0.05 to 1 µM	D (solubility of <1.0 μMol)	
O=C(N[C@@H](Cc1ccccc1)C(=O)Nc1ccc(S(=O)(=O)NC2COC2)c(O)c1)c1ccc(F)cc1 [Compound I-66]		0.05 to 1 µM	B (solubility of ≥50.0 μMol and <75.0 μMol)	IC50 ([3]; read-out: IC50): < 0.05 µM

The next lines start with results.

IC50 [2, 9]	IC50 [2, 10]	Kinetic Solubility (μMol) [5]	SMILES	further results
	1 to 10 µM	C (solubility ≥1.0 μMol and <50.0 μMol)	CC(C)(CO)NS(=O)(=O)c1ccc(NC(=O)[C@@H](NC(=O)c2ccc(F)cc2)C(C)(C)c2ccccc2)cc1 [Compound I-62]	
	0.05 to 1 µM	A (solubility of ≥75.0 μMol)	CN1CCC(C[C@H](NC(=O)c2ccc(F)cc2)C(=O)Nc2ccc(S(=O)(=O)NC(C)(C)C)nc2)CC1 [Compound I-78]	IC50 ([3]; read-out: USP30 IC50 μM (avg)): < 0.05 µM
< 0.05 µM		A (solubility of ≥75.0 μMol)	CC(C)(C)NS(=O)(=O)c1ccc(NC(=O)[C@H](CC2CCNCC2)NC(=O)c2ccc(F)cn2)cc1 [Compound I-175, (S)—N-(1-((4-(N-(tert-butyl)sulfamoyl)phenyl)amino)-1-oxo-3-(piperidin-4-yl)propan-2-yl)-5-fluoropicolinamide]	IC50 ([3]; read-out: USP30 IC50 μM (avg)): < 0.05 µM
	0.05 to 1 µM		COc1cc(NC(=O)[C@@H]2C[C@@H](c3ccccc3)CN2C(=O)c2ccc(F)cc2)ccc1S(=O)(=O)NC(C)(C)CO [Compound I-272]	IC50 ([3]; read-out: USP30 IC50 μM (avg)): 0.05 to 1 µM
< 0.05 µM			Cn1ccc(N2CCC(C[C@H](NC(=O)c3ccc(F)cc3)C(=O)Nc3ccc(S(=O)(=O)NC(C)(C)C)nc3)CC2)n1 [Compound I-293]	IC50 ([3]; read-out: USP30 IC50 μM (avg)): < 0.05 µM
< 0.05 µM		C (solubility ≥1.0 μMol and <50.0 μMol)	CC(C)(C)NS(=O)(=O)c1ccc(NC(=O)[C@H](CC2CCCCC2)NC(=O)c2ccc(F)cc2)cc1 [Compound I-294]	Half-life in mouse microsomes ([4]; 1 μM): D (half-life of <15 minutes); Efflux Ratio (Papp B>A/Papp A>B) [8]: B (efflux ratio >2 and ≤6); Papp(A-B) (10 − 6, cm/sec) ([8]; apical to basolateral): 1.8 10 − 6, cm/sec; Half-life in rat microsomes ([6]; 1 μM): D (half-life of <15 minutes); Half-life in human microsomes ([7]; 1 μM): D (half-life of <15 minutes)

— US20250162989A1, “USP30 INHIBITORS AND USES THEREOF” (Vincere Biosciences, Inc., priority 2021, published 2025)
